Assay [1] deals with T1, class I MHC molecule, HLA-A3 (Homo sapiens, UniProt P04439).
T1 construct: endogenous in cells; host or cells: VMM18 melanoma tumor cells
Put plainly: Isolation of HLA-A3 associated peptides (immunoaffinity purification from VMM18 tumor cells). Format: binding. The method, then:
Immunoaffinity purification of class I MHC molecules from aliquots of 6-8×10^10 VMM18 tumor cells was performed as described (Hogan et al., 1998, Cancer Res 58, 5144-5150), except that the HLA-A3-specific monoclonal antibody GAP-A3, bound to protein A-Sepharose, was used to isolate the HLA-A3 molecules.
Peptide extracts were fractionated by RP-HPLC using an Applied Biosystems model 140B system. The extracts were concentrated by vacuum centrifugation and injected onto a Higgins (Mountain View, Calif.) C18 HAISIL column (2.1 mm×4 cm, 300 Å, 5 μm). The peptides were eluted with a gradient of acetonitrile/0.085% trifluoroacetic acid (TFA)* in 0.1% TFA/water, with the concentration of acetonitrile increasing from 0 to 9% (0 to 5 min), 9 to 36% (5 to 55 min), and 36 to 60% (55 to 62 min). Second dimension fractionations of selected first dimension (TFA) fractions were accomplished using the same gradient but with the substitution of heptafluorobutyric acid (HFBA) for TFA. A third dimension of RP-HPLC was achieved using an Eldex (Napa, Calif.) MicroPro pump, a homemade C18 microcapillary column and an Applied Biosystems model 785A UV absorbance detector. The column was made by packing a 27-cm bed of 10-μm C18 particles in a section of 285 μm o.d.×75 μm i.d. fused silica. […] In all RP-HPLC experiments, peptides were detected by monitoring UV absorbance at 214 nm.

Assay [2] deals with C1R-A3 targets for lysis by VMM18 CTL. Put plainly: CTL epitope reconstitution assay (four-hour 51Cr-release). Format: cell-based. As to conditions: active at concentrations as low as. The method, then:
VMM18-specific CTL have been described previously (Skipper et al., 1996, J Immunol 157, 5027-5033). CTL were expanded in bulk culture using anti-CD3 antibody (Greenberg and Cheever, 1985, Surv Immunol Res 4, 283-296) and cryopreserved in aliquots of 1-5×10^7 cells for use in epitope reconstitution assays.
Aliquots of each RP-HPLC fraction were tested for the presence of peptides that could sensitize C1R-A3 targets for lysis by VMM18 CTL in standard four-hour 51Cr-release assays as previously described (Hogan et al., 1998, Cancer Res 58, 5144-5150).

T1 sequence (P04439 25-365): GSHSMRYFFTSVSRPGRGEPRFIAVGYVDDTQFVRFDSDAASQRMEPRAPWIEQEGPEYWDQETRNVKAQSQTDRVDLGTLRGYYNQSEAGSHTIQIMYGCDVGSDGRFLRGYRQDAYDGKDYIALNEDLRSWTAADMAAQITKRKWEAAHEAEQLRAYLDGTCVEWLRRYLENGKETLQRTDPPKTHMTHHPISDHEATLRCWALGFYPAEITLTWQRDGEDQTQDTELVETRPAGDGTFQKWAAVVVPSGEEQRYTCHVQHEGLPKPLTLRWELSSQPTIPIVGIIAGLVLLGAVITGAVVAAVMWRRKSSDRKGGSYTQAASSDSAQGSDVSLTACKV
T1 sequence (P61769 21-119 partner): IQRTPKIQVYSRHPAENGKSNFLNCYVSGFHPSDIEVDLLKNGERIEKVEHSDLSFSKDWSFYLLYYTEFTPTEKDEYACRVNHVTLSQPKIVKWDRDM

RLSNRLLLR (listed as Homo sapiens): the “binding to HLA-A3” value in assay [1] is listed as “binds to the class I MHC molecule, HLA-A3”. Also, in assay [2], the “concentration at which the synthetic peptide is active in sensitizing C1R-A3 targets for lysis by VMM18 CTL” value is given as at most 10 pM. For the sequence SQNFPGSQK (listed as Homo sapiens), the “concentration at which the synthetic peptide is active in sensitizing C1R-A3 targets for lysis by VMM18 CTL” value in assay [2] is at most 10 pM.

For the origin of these results see patent US7413894B2, “TAG-1 and TAG-2 proteins and uses thereof” (University of Virginia Patent Foundation, priority 2003, dated 2008).
